# From patent publication US11098040B2, “Compounds and methods of use” (Ferro Therapeutics, Inc., priority 2018, dated 2021)
# Experiments:
# [1] = Whole blood stability, mouse; format: in vitro ADME
# From the text: (§1) The results of the assay on stability in blood and IC50 values for pancreatic cancer cell line KP4 are given below in Table 24.
# [2] = Whole blood stability, human; format: in vitro ADME
# From the text: as §1
# [3] = test system: KP4; experiment: Cell viability assay (CellTiter Glo), pancreatic ductal adenocarcinoma KP4; format: cell-based, human; conditions: Homo sapiens, KP-4, 96 h, pancreatic cancer cell line KP4, 96 hours, CellTiter Glo; read-out: IC50 μM KP4
# Experimental: (§2) Cell viability assay was performed to assess the potency of the compounds in human cancer cell lines KP4 (pancreatic ductal adenocarcinoma), MiaPaCa-2 (pancreatic carcinoma), AsPC-1 (pancreatic adenocarcinoma, ascites), 143B (osteosarcoma), and SJSA-1 (osteosarcoma). Selected compounds were also assayed in a human breast epithelial cell line MCF-10A, a nontumorigenic cell line as a control to assess differential activity. Cells at a density of 500-5,000 cells/well were seeded in 96-well plates and incubated at 37° C. overnight. A series of 9 different concentrations of compound stocks (500×) were created by 3-fold serial dilution in DMSO. These compounds were further diluted in culture media and then added to cells so that the final DMSO concentration was equal to 0.25% or less. After 96 hours of incubation, 50 μL of CellTiter Glo reagent (Promega) was added to each well and luminescence was measured after 10 minutes using EnVision (PerkinElmer). Compounds titrated from top concentration of up to 30 μM. The select compounds were tested initially from 30 μM as the top concentration in duplicates (range of 4.6 nM-30 μM). […] Luminescence from cells treated with DMSO alone was set as Max and % of inhibition was calculated as follows: Inhibition %=(Max-Sample value)/Max*100. Data was analyzed using XL-fit software (ID Business Solutions Ltd.). IC50, relative IC50, or % of top inhibition was calculated.
# as §2, with “in” for “in human”, “line” for “lines”, “adenocarcinoma).” for “adenocarcinoma), MiaPaCa-2 (pancreatic carcinoma), AsPC-1 (pancreatic adenocarcinoma, ascites), 143B (osteosarcoma), and SJSA-1 (osteosarcoma). Selected compounds were also assayed in a human breast epithelial cell line MCF-10A, a nontumorigenic cell line as a control to assess differential activity.”, “1,000-10,000” for “500-5,000”, “All” for “Compounds titrated from top concentration of up to 30 μM. The select”
# as §1
SMILES,Whole Blood Stability % Remaining at 37° C. Mouse ([1]; 0 min),Whole Blood Stability % Remaining at 37° C. Mouse ([1]; 30 min),Whole Blood Stability % Remaining at 37° C. Mouse ([1]; 60 min),Whole Blood Stability % Remaining at 37° C. Human ([2]; 0 min),Whole Blood Stability % Remaining at 37° C. Human ([2]; 30 min),Whole Blood Stability % Remaining at 37° C. Human ([2]; 60 min),IC50 [3]
COC(=O)[C@H]1Cc2c([nH]c3ccccc23)[C@H](c2ccc(C(=O)NC(C)(C)C)cc2)N1C(=O)CCl [Compound 9],100.0%,61.9%,40.6%,100.0%,53.8%,47.0%,< 0.01 µM
COC(=O)[C@H]1Cc2c([nH]c3ccccc23)[C@@H](c2ccc(S(=O)(=O)N(C)C)cc2)N1C(=O)CCl [Compound 23a],100.0%,83.8%,78.6%,100.0%,83.2%,72.7%,> 1 µM
COC(=O)[C@H]1Cc2c([nH]c3ccccc23)[C@H](c2ccc(C(=O)N(C)C)cc2)N1C(=O)CCl [Compound 8],100.0%,53.0%,30.5%,100.0%,52.0%,26.5%,< 0.01 µM
COC[C@H]1Cc2c([nH]c3ccccc23)[C@@H](c2ccc(C(=O)OC(C)(C)C)cc2)N1C(=O)CCl [Compound 64],100.0%,0.0%,0.0%,100.0%,44.3%,14.7%,0.1 to 0.5 µM
COC(=O)[C@H]1Cc2c([nH]c3ccccc23)[C@H](c2ccc(C(=O)OC(C)(C)C)cc2)N1C(=O)C(C)Cl (stereo partly shown) [Compound 33],100.0%,78.9%,69.3%,100.0%,104.7%,103.8%,> 1 µM
COC(=O)c1ccc([C@H]2c3[nH]c4ccccc4c3C[C@H](C)N2C(=O)CCl)cc1 [Compound 77],100.0%,0.5%,0.0%,100.0%,54.1%,27.5%,< 0.01 µM
CC(=O)Nc1ccc([C@H]2c3[nH]c4ccccc4c3C[C@H](C(=O)N(C)C)N2C(=O)CCl)cc1 [Compound 71],100.0%,90.4%,75.5%,100.0%,80.4%,59.3%,> 1 µM
CN(C)C(=O)[C@H]1Cc2c([nH]c3ccccc23)[C@H](c2ccc(C(=O)N3CCC(O)CC3)cc2)N1C(=O)CCl [Compound 45],100.0%,91.2%,81.5%,100.0%,71.4%,56.4%,> 1 µM
CNS(=O)(=O)c1ccc([C@H]2c3[nH]c4ccccc4c3C[C@H](C(=O)OC)N2C(=O)CCl)cc1 [Compound 22],100.0%,47.4%,27.6%,100.0%,58.8%,24.9%,< 0.01 µM
CN(C)C(=O)[C@H]1Cc2c([nH]c3ccc(Br)cc23)[C@H](c2ccc(C(=O)OC(C)(C)C)cc2)N1C(=O)CCl [Compound 61],100.0%,20.5%,6.8%,100.0%,49.2%,34.0%,< 0.01 µM
COC(=O)c1ccc([C@H]2c3[nH]c4ccccc4c3C[C@H](C(=O)O)N2C(=O)CCl)cc1 [Compound 3],100%,51.3%,23.6%,100%,43.0%,29.4%,> 1 µM
COC(=O)[C@H]1Cc2c([nH]c3ccccc23)[C@@H](c2ccc(C(=O)N3CCC(O)CC3)cc2)N1C(=O)CCl [Compound 32a],100.0%,0.0%,0.0%,100.0%,1.9%,0.9%,> 1 µM
COC(=O)[C@H]1Cc2c([nH]c3ccccc23)[C@H](c2ccc(C(=O)N3CCOCC3)cc2)N1C(=O)CCl [Compound 26],100.0%,67.7%,55.7%,100.0%,47.1%,22.9%,0.01 to 0.1 µM
COC(=O)C1CCC([C@H]2c3[nH]c4ccccc4c3C[C@H](C(=O)N(C)C)N2C(=O)CCl)CC1 (stereo partly shown) [Compound 41],100.0%,0.0%,0.0%,100.0%,82.4%,100.0%,0.01 to 0.1 µM
COC(=O)c1ccc([C@@H]2c3[nH]c4ccccc4c3C[C@H](C)N2C(=O)CCl)cc1 [Example 77a],100.0%,0.0%,0.0%,100.0%,47.5%,14.8%,0.5 to 1 µM
CN(C)C(=O)c1ccc([C@H]2c3sc4ccccc4c3C[C@H](C(=O)N(C)C)N2C(=O)CCl)cc1 [Compound 55],100.0%,51.4%,24.6%,100.0%,50.6%,20.6%,0.1 to 0.5 µM
COC(=O)[C@H]1Cc2c([nH]c3ccccc23)[C@H](c2ccc(C(=O)OCC3CCCC3)cc2)N1C(=O)CCl [Compound 86],100.0%,0.0%,0.0%,100.0%,78.3%,49.6%,< 0.01 µM
COC(=O)[C@H]1Cc2c([nH]c3ccc(Br)cc23)[C@H](c2ccc(C(=O)OCC3CC3)cc2)N1C(=O)CCl [Compound 87],100.0%,0.0%,0.0%,100.0%,63.2%,32.2%,< 0.01 µM
COC(=O)[C@H]1Cc2c([nH]c3ccccc23)[C@H](c2ccc(C(=O)O)cc2)N1C(=O)CCl [Compound 4],100.0%,76.6%,63.9%,100.0%,59.3%,57.9%,> 1 µM
